Consider four compounds from publication PMC11207571, “Applicability of MDR1 Overexpressing Abcb1KO-MDCKII Cell Lines for Investigating In Vitro Species Differences and Brain Penetration Prediction” (Pharmaceutics, 2024).

The structures appear in SMILES notation.

T3 sequence (Q6PSM0 1-1272): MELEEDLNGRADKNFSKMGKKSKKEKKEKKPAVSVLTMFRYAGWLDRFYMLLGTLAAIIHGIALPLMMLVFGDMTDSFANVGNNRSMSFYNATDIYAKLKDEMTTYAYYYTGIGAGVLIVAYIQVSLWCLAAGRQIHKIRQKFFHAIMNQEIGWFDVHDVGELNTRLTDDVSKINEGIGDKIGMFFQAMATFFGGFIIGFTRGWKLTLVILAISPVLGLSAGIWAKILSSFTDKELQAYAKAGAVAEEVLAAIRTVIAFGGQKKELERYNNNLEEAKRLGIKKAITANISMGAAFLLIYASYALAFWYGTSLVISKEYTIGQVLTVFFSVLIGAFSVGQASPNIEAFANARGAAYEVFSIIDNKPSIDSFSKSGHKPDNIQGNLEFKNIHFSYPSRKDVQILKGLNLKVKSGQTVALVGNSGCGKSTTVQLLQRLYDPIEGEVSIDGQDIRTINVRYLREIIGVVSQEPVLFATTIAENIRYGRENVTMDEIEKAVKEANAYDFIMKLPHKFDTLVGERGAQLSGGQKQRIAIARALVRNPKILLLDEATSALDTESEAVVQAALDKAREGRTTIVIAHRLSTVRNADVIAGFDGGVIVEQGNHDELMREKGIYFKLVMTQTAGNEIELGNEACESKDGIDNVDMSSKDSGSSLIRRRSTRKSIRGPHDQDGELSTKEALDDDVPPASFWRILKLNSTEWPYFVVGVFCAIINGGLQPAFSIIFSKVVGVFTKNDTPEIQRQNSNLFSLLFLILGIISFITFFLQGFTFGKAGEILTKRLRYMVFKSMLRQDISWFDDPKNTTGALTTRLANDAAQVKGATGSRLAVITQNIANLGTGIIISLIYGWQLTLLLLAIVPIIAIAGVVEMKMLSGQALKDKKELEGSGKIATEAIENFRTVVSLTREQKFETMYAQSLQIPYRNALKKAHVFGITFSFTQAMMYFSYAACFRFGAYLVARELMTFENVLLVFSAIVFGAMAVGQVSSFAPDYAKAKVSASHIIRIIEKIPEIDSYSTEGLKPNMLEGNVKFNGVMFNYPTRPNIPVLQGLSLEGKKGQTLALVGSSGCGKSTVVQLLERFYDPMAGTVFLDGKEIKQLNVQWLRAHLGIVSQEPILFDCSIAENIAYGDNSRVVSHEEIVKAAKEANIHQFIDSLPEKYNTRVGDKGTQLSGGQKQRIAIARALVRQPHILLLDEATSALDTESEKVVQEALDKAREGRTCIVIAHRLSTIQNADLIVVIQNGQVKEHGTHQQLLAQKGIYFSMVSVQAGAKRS
T2 sequence (P21447 whole entry): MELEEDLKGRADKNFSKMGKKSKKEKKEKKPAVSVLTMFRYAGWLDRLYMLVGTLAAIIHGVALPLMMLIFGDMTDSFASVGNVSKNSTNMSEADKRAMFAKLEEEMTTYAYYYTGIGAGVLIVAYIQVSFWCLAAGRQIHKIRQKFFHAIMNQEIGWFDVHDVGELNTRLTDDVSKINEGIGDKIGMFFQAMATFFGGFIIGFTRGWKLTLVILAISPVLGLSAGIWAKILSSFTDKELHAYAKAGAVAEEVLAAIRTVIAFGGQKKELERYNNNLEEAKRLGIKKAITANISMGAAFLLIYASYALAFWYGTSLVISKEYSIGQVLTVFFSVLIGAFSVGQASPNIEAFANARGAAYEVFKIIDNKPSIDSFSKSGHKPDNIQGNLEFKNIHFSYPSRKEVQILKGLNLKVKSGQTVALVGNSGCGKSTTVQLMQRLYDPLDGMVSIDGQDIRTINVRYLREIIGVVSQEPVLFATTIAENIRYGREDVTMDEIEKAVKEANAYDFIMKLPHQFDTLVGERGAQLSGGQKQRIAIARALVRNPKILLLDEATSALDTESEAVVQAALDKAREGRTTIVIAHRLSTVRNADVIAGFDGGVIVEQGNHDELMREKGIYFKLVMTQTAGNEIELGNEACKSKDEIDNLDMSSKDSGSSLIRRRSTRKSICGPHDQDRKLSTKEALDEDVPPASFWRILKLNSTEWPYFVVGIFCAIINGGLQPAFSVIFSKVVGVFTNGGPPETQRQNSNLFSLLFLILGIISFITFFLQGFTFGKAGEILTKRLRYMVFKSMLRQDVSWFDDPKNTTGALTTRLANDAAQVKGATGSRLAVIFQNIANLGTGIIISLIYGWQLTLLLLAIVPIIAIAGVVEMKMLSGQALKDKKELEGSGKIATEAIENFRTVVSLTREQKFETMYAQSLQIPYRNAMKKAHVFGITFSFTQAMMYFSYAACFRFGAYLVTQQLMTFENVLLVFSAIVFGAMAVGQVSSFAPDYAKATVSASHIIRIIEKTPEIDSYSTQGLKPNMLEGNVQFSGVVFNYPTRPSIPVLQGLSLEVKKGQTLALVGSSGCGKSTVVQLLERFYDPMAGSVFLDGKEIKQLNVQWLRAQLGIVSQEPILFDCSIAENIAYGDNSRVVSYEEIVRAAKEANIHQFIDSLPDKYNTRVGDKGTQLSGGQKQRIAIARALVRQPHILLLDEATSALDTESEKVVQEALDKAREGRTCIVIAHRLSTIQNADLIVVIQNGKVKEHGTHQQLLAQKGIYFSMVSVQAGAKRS

The target in one series is T1, cynomolgus monkey Mdr1 (Macaca fascicularis, UniProt Q8HZQ6). Kind of series: cell-based.
T1 sequence (Q8HZQ6 1-1283): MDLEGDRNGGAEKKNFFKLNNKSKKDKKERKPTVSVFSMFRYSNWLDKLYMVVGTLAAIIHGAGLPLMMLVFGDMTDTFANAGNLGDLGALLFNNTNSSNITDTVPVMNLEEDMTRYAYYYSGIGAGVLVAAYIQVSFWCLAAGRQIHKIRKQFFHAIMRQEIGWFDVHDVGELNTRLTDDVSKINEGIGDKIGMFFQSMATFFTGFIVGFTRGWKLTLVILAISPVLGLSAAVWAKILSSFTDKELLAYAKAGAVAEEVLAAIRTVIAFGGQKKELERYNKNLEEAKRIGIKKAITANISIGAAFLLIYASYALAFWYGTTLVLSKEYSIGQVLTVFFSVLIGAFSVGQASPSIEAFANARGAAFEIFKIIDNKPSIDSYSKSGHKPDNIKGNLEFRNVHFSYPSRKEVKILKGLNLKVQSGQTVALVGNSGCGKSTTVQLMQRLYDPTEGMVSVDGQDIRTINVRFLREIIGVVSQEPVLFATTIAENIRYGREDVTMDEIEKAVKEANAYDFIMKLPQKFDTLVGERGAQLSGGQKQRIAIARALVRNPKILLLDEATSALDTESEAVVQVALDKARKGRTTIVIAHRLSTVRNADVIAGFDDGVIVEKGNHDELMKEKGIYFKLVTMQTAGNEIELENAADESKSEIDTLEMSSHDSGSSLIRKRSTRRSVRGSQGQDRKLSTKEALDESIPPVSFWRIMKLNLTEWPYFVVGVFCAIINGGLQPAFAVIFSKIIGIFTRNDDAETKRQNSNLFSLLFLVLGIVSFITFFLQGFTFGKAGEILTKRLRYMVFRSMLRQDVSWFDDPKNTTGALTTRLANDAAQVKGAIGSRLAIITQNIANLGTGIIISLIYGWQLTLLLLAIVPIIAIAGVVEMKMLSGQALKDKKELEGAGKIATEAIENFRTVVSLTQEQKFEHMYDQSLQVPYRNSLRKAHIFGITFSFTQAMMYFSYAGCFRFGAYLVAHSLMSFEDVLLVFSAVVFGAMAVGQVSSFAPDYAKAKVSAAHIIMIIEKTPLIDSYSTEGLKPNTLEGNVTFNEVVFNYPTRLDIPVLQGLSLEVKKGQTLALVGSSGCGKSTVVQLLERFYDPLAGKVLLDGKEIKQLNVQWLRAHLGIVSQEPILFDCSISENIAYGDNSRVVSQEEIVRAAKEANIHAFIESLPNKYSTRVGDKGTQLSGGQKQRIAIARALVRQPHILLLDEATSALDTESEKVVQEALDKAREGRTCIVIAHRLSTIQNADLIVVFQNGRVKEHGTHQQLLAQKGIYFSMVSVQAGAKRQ
Conditions: not given
Take `CCOC(=O)C1=C(C)NC(C)=C(C(=O)OC)C1c1cccc([N+](=O)[O-])c1` (centres unmarked) [Nitrendipine]: the IC50 (in general, the concentration needed to halve the response being measured) is 3.15 ± 1.7 µM.
The same measure, in the same setting: the figure for `Cc1ccccc1C(=O)Nc1ccc(C(=O)N2CCCC(O)c3cc(Cl)ccc32)c(C)c1` (centres unmarked) [Tolvaptan] is 6.68 ± 1.63 µM; for `CCC(C)n1ncn(-c2ccc(N3CCN(c4ccc(OCC5COC(Cn6cncn6)(c6ccc(Cl)cc6Cl)O5)cc4)CC3)cc2)c1=O` (centres unmarked) [Itraconazole] it is 0.36 ± 0.19 µM.
Same read-out and setting: the figure for `CCCc1nc2c(C)cc(-c3nc4ccccc4n3C)cc2n1Cc1ccc(-c2ccccc2C(=O)O)cc1` [Telmisartan] is 4.06 ± 1.69 µM.

The target of a further series is T2, mouse Mdr1a (Mus musculus, UniProt P21447). Kind of series: Bidirectional transport assay, efflux ratio in Abcb1KO-MDCKII mMDR1 cells. The following applies: mouse, pH 7.4. As for the experimental part:
(§1) Eluent A consisted of 0.1% formic acid in water, eluent B consisted of 0.1% formic acid in acetonitrile. Then, 10 µL samples were injected into the HPLC-MS/MS system. Mass spectrometric detection was performed in SRM mode, and ion transitions for each analyte were optimized during method development. Samples were analyzed in pools, with each pool containing three to four analytes.
For `CCCc1nc2c(C)cc(-c3nc4ccccc4n3C)cc2n1Cc1ccc(-c2ccccc2C(=O)O)cc1` [Telmisartan], the efflux ratio (usually a quotient of directional permeabilities that is used to spot active efflux) at 120 min, 1 µM was 2.2 ± 0.27.

The target in a further series is T3, rat Mdr1a (Rattus norvegicus, UniProt Q6PSM0). Kind of series: Bidirectional transport assay, efflux ratio in Abcb1KO-MDCKII rMDR1 cells. Conditions: rat, pH 7.4. As for the experimental part:
as §1
On to `CCCc1nc2c(C)cc(-c3nc4ccccc4n3C)cc2n1Cc1ccc(-c2ccccc2C(=O)O)cc1` [Telmisartan], for which the efflux ratio at 120 min, 1 µM amounted to 2.65 ± 0.75.

System in the next series: not listed separately
Kind of series: Bidirectional transport assay, efflux ratio in Abcb1KO-MDCKII-Mock control cells. Conditions: dog, MDCK, pH 7.4. The procedure:
as §1
Regarding `CCCc1nc2c(C)cc(-c3nc4ccccc4n3C)cc2n1Cc1ccc(-c2ccccc2C(=O)O)cc1` [Telmisartan], the efflux ratio at 120 min, 1 µM was 0.38 ± 0.06.

In another series the target is human MDR1 (Homo sapiens, UniProt P08183). As to the kind of experiment: Inhibition of 3H-digoxin or 3H-quinidine bidirectional transport in hMDR1 cells. Conditions: Inhibition of digoxin transport IC50±SD, hMDR1, probe 3H-digoxin 1 µM, 120 min; IC50 from ER.
Chain of human MDR1 (P08183 whole entry): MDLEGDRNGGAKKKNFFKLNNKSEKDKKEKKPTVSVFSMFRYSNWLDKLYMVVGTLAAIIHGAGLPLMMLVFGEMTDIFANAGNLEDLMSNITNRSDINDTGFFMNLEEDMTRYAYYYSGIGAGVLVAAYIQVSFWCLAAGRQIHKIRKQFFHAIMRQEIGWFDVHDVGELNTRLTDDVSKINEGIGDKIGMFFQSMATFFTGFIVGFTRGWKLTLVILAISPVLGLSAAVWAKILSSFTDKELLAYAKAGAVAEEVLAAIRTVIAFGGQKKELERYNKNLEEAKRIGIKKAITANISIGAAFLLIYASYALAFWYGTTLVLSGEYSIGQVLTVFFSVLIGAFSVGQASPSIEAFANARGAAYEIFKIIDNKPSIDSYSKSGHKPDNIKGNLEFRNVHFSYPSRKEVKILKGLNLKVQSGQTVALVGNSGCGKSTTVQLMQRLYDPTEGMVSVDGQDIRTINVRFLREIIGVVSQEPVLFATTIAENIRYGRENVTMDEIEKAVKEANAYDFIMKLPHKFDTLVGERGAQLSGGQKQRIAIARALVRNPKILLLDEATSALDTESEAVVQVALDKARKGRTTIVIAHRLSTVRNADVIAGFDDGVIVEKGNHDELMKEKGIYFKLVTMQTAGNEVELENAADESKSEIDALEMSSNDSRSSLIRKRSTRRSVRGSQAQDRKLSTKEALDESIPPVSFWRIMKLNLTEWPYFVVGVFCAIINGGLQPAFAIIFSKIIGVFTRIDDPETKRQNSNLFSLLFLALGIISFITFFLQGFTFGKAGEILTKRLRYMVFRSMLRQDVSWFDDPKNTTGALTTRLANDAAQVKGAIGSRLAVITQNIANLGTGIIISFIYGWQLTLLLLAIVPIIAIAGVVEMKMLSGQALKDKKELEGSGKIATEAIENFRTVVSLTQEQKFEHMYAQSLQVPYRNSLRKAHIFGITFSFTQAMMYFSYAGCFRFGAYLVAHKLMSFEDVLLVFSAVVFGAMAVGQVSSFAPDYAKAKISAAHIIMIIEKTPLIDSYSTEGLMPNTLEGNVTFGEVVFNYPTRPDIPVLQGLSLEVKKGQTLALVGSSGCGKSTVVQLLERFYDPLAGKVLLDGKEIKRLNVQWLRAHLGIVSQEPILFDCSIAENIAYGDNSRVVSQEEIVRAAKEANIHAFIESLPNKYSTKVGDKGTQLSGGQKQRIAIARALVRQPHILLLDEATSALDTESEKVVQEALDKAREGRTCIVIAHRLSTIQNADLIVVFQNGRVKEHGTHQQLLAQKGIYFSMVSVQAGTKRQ
In turn, `CCOC(=O)C1=C(C)NC(C)=C(C(=O)OC)C1c1cccc([N+](=O)[O-])c1` (centres unmarked) [Nitrendipine] had an IC50 of more than 50 µM.
The same measure, in the same setting: the figure for `Cc1ccccc1C(=O)Nc1ccc(C(=O)N2CCCC(O)c3cc(Cl)ccc32)c(C)c1` (centres unmarked) [Tolvaptan] is more than 30 µM; for `CCCc1nc2c(C)cc(-c3nc4ccccc4n3C)cc2n1Cc1ccc(-c2ccccc2C(=O)O)cc1` [Telmisartan] it is 15.2 ± 5.66 µM.

Staying with this series, now noted: Inhibition of quinidine transport IC50±SD, hMDR1, probe 3H-quinidine 1 µM, 60 min; IC50 from ER.
Consider `CCOC(=O)C1=C(C)NC(C)=C(C(=O)OC)C1c1cccc([N+](=O)[O-])c1` (centres unmarked) [Nitrendipine], for which the IC50 is more than 50 µM.
For `Cc1ccccc1C(=O)Nc1ccc(C(=O)N2CCCC(O)c3cc(Cl)ccc32)c(C)c1` (centres unmarked) [Tolvaptan], half-maximal inhibition (IC50) was put at 1.28 ± 0.44 µM.
Still for that read-out and setting: the figure for `CCCc1nc2c(C)cc(-c3nc4ccccc4n3C)cc2n1Cc1ccc(-c2ccccc2C(=O)O)cc1` [Telmisartan] is 1.81 ± 0.87 µM.

The next series concerns the target T4, human BCRP (Homo sapiens, UniProt Q9UNQ0).
T4 sequence (Q9UNQ0 1-655): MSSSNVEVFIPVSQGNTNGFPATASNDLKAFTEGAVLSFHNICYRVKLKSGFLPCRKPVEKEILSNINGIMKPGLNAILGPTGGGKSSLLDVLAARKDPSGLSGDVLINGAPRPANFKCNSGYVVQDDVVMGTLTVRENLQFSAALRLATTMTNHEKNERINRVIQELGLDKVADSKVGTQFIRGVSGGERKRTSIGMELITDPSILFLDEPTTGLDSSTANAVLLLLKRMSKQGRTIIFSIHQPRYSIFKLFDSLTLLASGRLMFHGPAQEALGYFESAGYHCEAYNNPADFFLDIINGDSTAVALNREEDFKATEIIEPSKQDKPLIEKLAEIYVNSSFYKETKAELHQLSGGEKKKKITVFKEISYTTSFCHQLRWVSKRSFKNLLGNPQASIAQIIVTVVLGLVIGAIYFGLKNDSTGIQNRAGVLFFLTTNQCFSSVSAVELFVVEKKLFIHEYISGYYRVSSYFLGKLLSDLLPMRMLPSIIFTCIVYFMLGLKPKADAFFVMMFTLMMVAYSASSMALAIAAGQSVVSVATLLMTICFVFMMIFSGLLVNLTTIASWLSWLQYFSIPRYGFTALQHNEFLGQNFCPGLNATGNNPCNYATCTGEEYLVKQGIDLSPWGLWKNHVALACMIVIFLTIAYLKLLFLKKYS
As to the kind of experiment: Bidirectional transport assay, efflux ratio in MDCKII-BCRP cells. Conditions: human, pH 7.4. The procedure:
as §1
`CCCc1nc2c(C)cc(-c3nc4ccccc4n3C)cc2n1Cc1ccc(-c2ccccc2C(=O)O)cc1` [Telmisartan]: the efflux ratio at 120 min, 1 µM is 12.2 ± 0.95.

For the next series, the target named is T1, cynomolgus monkey Mdr1. Kind of series: Bidirectional transport assay, efflux ratio in Abcb1KO-MDCKII cyMDR1 cells. Conditions: cynomolgus monkey, pH 7.4. The procedure: as §1
For `CCCc1nc2c(C)cc(-c3nc4ccccc4n3C)cc2n1Cc1ccc(-c2ccccc2C(=O)O)cc1` [Telmisartan], the efflux ratio at 120 min, 1 µM amounted to 3.18 ± 0.63.

For the next series, the target named is T3, rat Mdr1a. As to the kind of experiment: Inhibition of 3H-digoxin or 3H-quinidine bidirectional transport in rMDR1 cells. In kind it is cell-based. Details: rat Mdr1a (NM_133401.1); expressed in transfected cells; host or cells: Abcb1KO-MDCKII (canine kidney, endogenous Abcb1 knocked out), transduced, single-cell clone. Conditions: Inhibition of digoxin transport IC50±SD, rMDR1, probe 3H-digoxin 1 µM, 120 min; IC50 from ER.
The compound `CCOC(=O)C1=C(C)NC(C)=C(C(=O)OC)C1c1cccc([N+](=O)[O-])c1` (centres unmarked) [Nitrendipine] had an IC50 of 4.02 ± 1.64 µM.
Turning to `Cc1ccccc1C(=O)Nc1ccc(C(=O)N2CCCC(O)c3cc(Cl)ccc32)c(C)c1` (centres unmarked) [Tolvaptan], half-maximal inhibition (IC50) was put at 8.79 ± 2.81 µM.
The same measure, in the same setting: the same measure for `CCC(C)n1ncn(-c2ccc(N3CCN(c4ccc(OCC5COC(Cn6cncn6)(c6ccc(Cl)cc6Cl)O5)cc4)CC3)cc2)c1=O` (centres unmarked) [Itraconazole]: 4.41 ± 1.05 µM.
The same measure, in the same setting: the same measure for `CCCc1nc2c(C)cc(-c3nc4ccccc4n3C)cc2n1Cc1ccc(-c2ccccc2C(=O)O)cc1` [Telmisartan]: 11.6 ± 3.91 µM.

Staying with this series, now noted: Inhibition of quinidine transport IC50±SD, rMDR1, probe 3H-quinidine 1 µM, 30 min; IC50 from ER.
`CCOC(=O)C1=C(C)NC(C)=C(C(=O)OC)C1c1cccc([N+](=O)[O-])c1` (centres unmarked) [Nitrendipine]: half-maximal inhibition (IC50) required 6.34 ± 2.68 µM.
Same read-out and setting: the figure for `Cc1ccccc1C(=O)Nc1ccc(C(=O)N2CCCC(O)c3cc(Cl)ccc32)c(C)c1` (centres unmarked) [Tolvaptan] is 4.14 ± 1.47 µM.
Turning to `CCC(C)n1ncn(-c2ccc(N3CCN(c4ccc(OCC5COC(Cn6cncn6)(c6ccc(Cl)cc6Cl)O5)cc4)CC3)cc2)c1=O` (centres unmarked) [Itraconazole], the IC50 came to 0.15 ± 0.07 µM.
Same read-out and setting: the same measure for `CCCc1nc2c(C)cc(-c3nc4ccccc4n3C)cc2n1Cc1ccc(-c2ccccc2C(=O)O)cc1` [Telmisartan]: 2.72 ± 1.26 µM.

The next series deals with T1, cynomolgus monkey Mdr1. Kind of series: Inhibition of 3H-digoxin or 3H-quinidine bidirectional transport in cyMDR1 cells. The following applies: Inhibition of quinidine transport IC50±SD, cyMDR1, probe 3H-quinidine 0.1 µM, 60 min; IC50 from ER.
`CCOC(=O)C1=C(C)NC(C)=C(C(=O)OC)C1c1cccc([N+](=O)[O-])c1` (centres unmarked) [Nitrendipine] yielded an IC50 of 17.5 ± 4.96 µM.
On the same count and under the same terms, the same measure for `Cc1ccccc1C(=O)Nc1ccc(C(=O)N2CCCC(O)c3cc(Cl)ccc32)c(C)c1` (centres unmarked) [Tolvaptan]: 5.11 ± 1.65 µM.
The same measure, in the same setting: the same measure for `CCC(C)n1ncn(-c2ccc(N3CCN(c4ccc(OCC5COC(Cn6cncn6)(c6ccc(Cl)cc6Cl)O5)cc4)CC3)cc2)c1=O` (centres unmarked) [Itraconazole]: 0.32 ± 0.12 µM; for `CCCc1nc2c(C)cc(-c3nc4ccccc4n3C)cc2n1Cc1ccc(-c2ccccc2C(=O)O)cc1` [Telmisartan]: 1.55 ± 0.53 µM.

The target in another series is T2, mouse Mdr1a. Kind of series: Inhibition of 3H-digoxin or 3H-quinidine bidirectional transport in mMDR1 cells. It is filed as cell-based. Further details: mouse Mdr1a (NM_011076.3); expressed in transfected cells; host or cells: Abcb1KO-MDCKII (canine kidney, endogenous Abcb1 knocked out), transduced, single-cell clone. The following applies: Inhibition of digoxin transport IC50±SD, mMDR1, probe 3H-digoxin 1 µM, 120 min; IC50 from ER.
For `CCOC(=O)C1=C(C)NC(C)=C(C(=O)OC)C1c1cccc([N+](=O)[O-])c1` (centres unmarked) [Nitrendipine], the IC50 is more than 50 µM.
Still for that read-out and setting: the same measure for `Cc1ccccc1C(=O)Nc1ccc(C(=O)N2CCCC(O)c3cc(Cl)ccc32)c(C)c1` (centres unmarked) [Tolvaptan]: 10.9 ± 1.46 µM; for `CCC(C)n1ncn(-c2ccc(N3CCN(c4ccc(OCC5COC(Cn6cncn6)(c6ccc(Cl)cc6Cl)O5)cc4)CC3)cc2)c1=O` (centres unmarked) [Itraconazole]: 1.39 ± 0.5 µM.
The compound `CCCc1nc2c(C)cc(-c3nc4ccccc4n3C)cc2n1Cc1ccc(-c2ccccc2C(=O)O)cc1` [Telmisartan] gave a half-inhibitory concentration (IC50) of 2.6 ± 1.59 µM.

The same series, now with this note: Inhibition of quinidine transport IC50±SD, mMDR1, probe 3H-quinidine 1 µM, 60 min; IC50 from ER.
`CCOC(=O)C1=C(C)NC(C)=C(C(=O)OC)C1c1cccc([N+](=O)[O-])c1` (centres unmarked) [Nitrendipine] displayed an IC50 of 15.7 ± 5.68 µM.
Take `Cc1ccccc1C(=O)Nc1ccc(C(=O)N2CCCC(O)c3cc(Cl)ccc32)c(C)c1` (centres unmarked) [Tolvaptan]: the IC50 amounted to 3.92 ± 0.87 µM.
For the compound `CCC(C)n1ncn(-c2ccc(N3CCN(c4ccc(OCC5COC(Cn6cncn6)(c6ccc(Cl)cc6Cl)O5)cc4)CC3)cc2)c1=O` (centres unmarked) [Itraconazole], the IC50 was determined as 0.48 ± 0.11 µM.
Compound `CCCc1nc2c(C)cc(-c3nc4ccccc4n3C)cc2n1Cc1ccc(-c2ccccc2C(=O)O)cc1` [Telmisartan] showed an IC50 of 2.28 ± 0.97 µM.
